Experimental data published in patent publication US20210196654A1, “METHOD OF TREATING CONDITIONS” (Clexio Biosciences Ltd., priority 2019, published 2021).

Assay: Repeated dose 28 day toxicokinetics
Settings: for AUC(0-inf) / AUC(0-t) / Cmax / half-life / Tmax: Sprague Dawley, rat, in vivo, po; for AUC(0-t): AUC0-t
Procedure: The objective of the study was to assess the potential toxicity, neurobehavioral effects, and toxicokinetics (TK) of esketamine when administered orally, via gavage, to Sprague Dawley rats for 28 days and to evaluate recovery during a 14-day drug-free period. Fifty male and 50 female rats were randomized into 4 groups (15/sex/Groups 1 and 4; 10/sex/Groups 2 and 3). Esketamine was administered via oral gavage once daily for 28 consecutive days to males at 0 (vehicle control), 6, 10 or 30 mg/kg/day and females at 0 (vehicle control), 2, 10 or 20 mg/kg/day in a dose volume of 10 mL/kg. Animals were observed until euthanized and necropsied on Day 29 (10/sex/group) or 43 (5/sex from Groups 1 and 4). Toxicity was evaluated based on mortality, clinical observations, body weights, food consumption, ophthalmology, motor activity, functional observational battery, clinical pathology (clinical chemistry, hematology, coagulation and urinalysis), organ weights, anatomic (macroscopic or microscopic) pathology. Toxicokinetic animals (3/sex/Group 1; 6/sex/Groups 2, 3, and 4) were similarly dosed and bled on Day 1 and during Week 4 for toxicokinetic analysis.

[1] = female, 2 mg/kg, Day 1, female rats, 2 mg/kg oral
[2] = female, 2 mg/kg, Day 28, female rats, 2 mg/kg oral
[3] = female, 10 mg/kg, Day 1, female rats, 10 mg/kg oral
[4] = female, 10 mg/kg, Day 28, female rats, 10 mg/kg oral
[5] = female, 20 mg/kg, Day 1, female rats, 20 mg/kg oral
[6] = female, 20 mg/kg, Day 28, female rats, 20 mg/kg oral
[7] = male, 6 mg/kg, Day 1, male rats, 6 mg/kg oral
[8] = male, 6 mg/kg, Day 28, male rats, 6 mg/kg oral
[9] = male, 10 mg/kg, Day 1, male rats, 10 mg/kg oral
[10] = male, 10 mg/kg, Day 28, male rats, 10 mg/kg oral

CN[C@]1(c2ccccc2Cl)CCCCC1=O [esketamine, (2S)-2-(2-Chlorophenyl)-2-(methylamino) cyclohexanone]
Dose normalized AUC0-inf (Day 1, female rats, 2 mg/kg oral): 29.0 (ng*h/ml)/(mg/kg) | Dose normalized AUC0-inf (Day 1, female rats, 10 mg/kg oral): 44.0 (ng*h/ml)/(mg/kg) | Dose normalized AUC0-inf (Day 1, female rats, 20 mg/kg oral): 49.8 (ng*h/ml)/(mg/kg) | Dose normalized AUC0-inf (Day 1, male rats, 6 mg/kg oral): 17.2 (ng*h/ml)/(mg/kg) | Dose normalized AUC0-inf (Day 1, male rats, 10 mg/kg oral): 18.1 (ng*h/ml)/(mg/kg) | Dose normalized AUC0-inf (Day 1, male rats, 30 mg/kg oral): 19.5 (ng*h/ml)/(mg/kg) | Dose normalized AUC0-t (Day 28, female rats, 2 mg/kg oral): 31.0 (ng*h/ml)/(mg/kg) | Dose normalized AUC0-t (Day 28, female rats, 10 mg/kg oral): 51.3 (ng*h/ml)/(mg/kg) | Dose normalized AUC0-t (Day 28, female rats, 20 mg/kg oral): 53.2 (ng*h/ml)/(mg/kg) | Dose normalized AUC0-t (Day 28, male rats, 6 mg/kg oral): 10.2 (ng*h/ml)/(mg/kg) | Dose normalized AUC0-t (Day 28, male rats, 10 mg/kg oral): 17.9 (ng*h/ml)/(mg/kg) | Dose normalized AUC0-t (Day 28, male rats, 30 mg/kg oral): 19.2 (ng*h/ml)/(mg/kg) | sex difference in exposure (after normalization for dose level differences): males had lower exposures than females | AUC(0-inf) (female, 2 mg/kg): 58 ng·h/mL | AUC(0-t) [1]: 57 ng·h/mL | AUC(0-t) [2]: 62 ng·h/mL | Cmax [1]: 67.2 ng/mL | Cmax [2]: 133 ng/mL | half-life (female, 2 mg/kg, t1/2, Day 1, female rats, 2 mg/kg oral): 30 min | Tmax [1]: 10.2 min | Tmax [2]: 10.2 min | AUC(0-inf) (female, 10 mg/kg): 440 ng·h/mL | AUC(0-t) [3]: 418 ng·h/mL | AUC(0-t) [4]: 514 ng·h/mL | Cmax [3]: 295 ng/mL | Cmax [4]: 768 ng/mL | half-life (female, 10 mg/kg, t1/2, Day 1, female rats, 10 mg/kg oral): 42 min | half-life (female, 10 mg/kg, t1/2, Day 28, female rats, 10 mg/kg oral): 24 min | Tmax [3]: 10.2 min | Tmax [4]: 10.2 min | AUC(0-inf) (female, 20 mg/kg): 995 ng·h/mL | AUC(0-t) [5]: 993 ng·h/mL | AUC(0-t) [6]: 1060 ng·h/mL | Cmax [5]: 672 ng/mL | Cmax [6]: 1450 ng/mL | half-life (female, 20 mg/kg, t1/2, Day 1, female rats, 20 mg/kg oral): 54 min | half-life (female, 20 mg/kg, t1/2, Day 28, female rats, 20 mg/kg oral): 36 min | Tmax [5]: 10.2 min | Tmax [6]: 10.2 min | Cmax Day 28 vs Day 1 (females): higher on Day 28 | exposure increase with dose (females, 2 to 20 mg/kg/day): slightly greater than dose-proportional | AUC(0-inf) (male, 6 mg/kg): 103 ng·h/mL | AUC(0-t) [7]: 99 ng·h/mL | AUC(0-t) [8]: 61 ng·h/mL | Cmax [7]: 109 ng/mL | Cmax [8]: 113 ng/mL | half-life (male, 6 mg/kg, t1/2, Day 1, male rats, 6 mg/kg oral): 48 min | half-life (male, 6 mg/kg, t1/2, Day 28, male rats, 6 mg/kg oral): 36 min | Tmax [7]: 10.2 min | Tmax [8]: 10.2 min | AUC(0-inf) (male, 10 mg/kg): 181 ng·h/mL | AUC(0-t) [9]: 175 ng·h/mL | AUC(0-t) [10]: 179 ng·h/mL | Cmax [9]: 179 ng/mL | Cmax [10]: 211 ng/mL | half-life (male, 10 mg/kg, t1/2, Day 1, male rats, 10 mg/kg oral): 42 min
